Measurements as given in the NIST ThermoML archive (doi:10.1016/j.jct.2006.01.012).

Experiment: xn = mol fraction of the nth substance listed
Conditions: Liquid; for mass density: isochoric method; for viscosity: Capillary tube (Ostwald / Ubbelohde) method

CCCCCCCC [octane] + CCCCCCC
Conditions	mass density [kg/m3]	viscosity [mPa·s]
293.15 K, 100 kPa, x2 = 0.2808	697.8	–
293.15 K, 100 kPa, x2 = 0.5427	693.2	–
293.15 K, 100 kPa, x2 = 0.7906	688.3	–
298.15 K, 100 kPa, x2 = 0.2808	694	–
298.15 K, 100 kPa, x2 = 0.5427	689.2	0.436
298.15 K, 100 kPa, x2 = 0.7906	684.2	–
298.15 K, 5000 kPa, x2 = 0.5427	–	0.461
298.15 K, 10000 kPa, x2 = 0.5427	–	0.487
298.22 K, 100 kPa, x2 = 0.7906	–	0.408
298.22 K, 5000 kPa, x2 = 0.7906	–	0.435
298.22 K, 10000 kPa, x2 = 0.7906	–	0.459
298.39 K, 100 kPa, x2 = 0.2808	–	0.467
298.39 K, 5000 kPa, x2 = 0.2808	–	0.493
298.39 K, 10000 kPa, x2 = 0.2808	–	0.521
299.24 K, 3824 kPa, x2 = 0.5427	691.8	–
299.24 K, 6865 kPa, x2 = 0.5427	694.6	–
299.24 K, 9316 kPa, x2 = 0.5427	696.4	–
303.15 K, 100 kPa, x2 = 0.2808	689.9	–
303.15 K, 100 kPa, x2 = 0.5427	685	–
303.15 K, 100 kPa, x2 = 0.7906	680.1	–
303.39 K, 100 kPa, x2 = 0.5427	–	0.414
303.39 K, 5000 kPa, x2 = 0.5427	–	0.435
303.39 K, 10000 kPa, x2 = 0.5427	–	0.459
303.85 K, 100 kPa, x2 = 0.2808	–	0.441
303.85 K, 5000 kPa, x2 = 0.2808	–	0.465
303.85 K, 10000 kPa, x2 = 0.2808	–	0.492
305.74 K, 100 kPa, x2 = 0.7906	–	0.379
305.74 K, 5000 kPa, x2 = 0.7906	–	0.402
305.74 K, 10000 kPa, x2 = 0.7906	–	0.425
306.18 K, 2942 kPa, x2 = 0.2808	690.3	–
306.18 K, 7021 kPa, x2 = 0.2808	693.8	–
306.18 K, 8826 kPa, x2 = 0.2808	695.3	–
307.62 K, 2608 kPa, x2 = 0.7906	678.6	–
307.62 K, 7178 kPa, x2 = 0.7906	683	–
307.62 K, 9140 kPa, x2 = 0.7906	684.6	–
308.15 K, 100 kPa, x2 = 0.2808	686.1	–
308.15 K, 100 kPa, x2 = 0.5427	680.9	–
308.15 K, 100 kPa, x2 = 0.7906	675.9	–
312.71 K, 100 kPa, x2 = 0.2808	–	0.4
312.71 K, 5000 kPa, x2 = 0.2808	–	0.424
312.71 K, 10000 kPa, x2 = 0.2808	–	0.446
312.74 K, 100 kPa, x2 = 0.5427	–	0.374
312.74 K, 5000 kPa, x2 = 0.5427	–	0.396
312.74 K, 10000 kPa, x2 = 0.5427	–	0.419
312.75 K, 100 kPa, x2 = 0.7906	–	0.352
312.75 K, 5000 kPa, x2 = 0.7906	–	0.373
312.75 K, 10000 kPa, x2 = 0.7906	–	0.395
313.15 K, 100 kPa, x2 = 0.2808	681.6	–
313.15 K, 100 kPa, x2 = 0.5427	676.6	–
313.15 K, 100 kPa, x2 = 0.7906	671.6	–
318.15 K, 100 kPa, x2 = 0.2808	677.4	–
318.15 K, 100 kPa, x2 = 0.5427	672.7	–
318.15 K, 100 kPa, x2 = 0.7906	667.3	–
321.21 K, 100 kPa, x2 = 0.5427	–	0.338
321.21 K, 5000 kPa, x2 = 0.5427	–	0.359
321.21 K, 10000 kPa, x2 = 0.5427	–	0.38
321.71 K, 100 kPa, x2 = 0.2808	–	0.362
321.71 K, 5000 kPa, x2 = 0.2808	–	0.384
321.71 K, 10000 kPa, x2 = 0.2808	–	0.405
323.15 K, 100 kPa, x2 = 0.2808	673.2	–
323.15 K, 100 kPa, x2 = 0.5427	668.5	–
323.15 K, 100 kPa, x2 = 0.7906	663	–
323.82 K, 100 kPa, x2 = 0.7906	–	0.314
323.82 K, 5000 kPa, x2 = 0.7906	–	0.334
323.82 K, 10000 kPa, x2 = 0.7906	–	0.353
331.45 K, 4121 kPa, x2 = 0.7906	658.7	–
331.45 K, 6311 kPa, x2 = 0.7906	662.6	–
331.45 K, 8523 kPa, x2 = 0.7906	665.5	–
331.45 K, 10350 kPa, x2 = 0.7906	667.1	–
331.55 K, 4119 kPa, x2 = 0.5427	665	–
331.55 K, 5944 kPa, x2 = 0.5427	668.1	–
331.55 K, 8203 kPa, x2 = 0.5427	670.9	–
331.55 K, 10100 kPa, x2 = 0.5427	672.6	–
333.15 K, 100 kPa, x2 = 0.2808	664.9	–
333.15 K, 100 kPa, x2 = 0.5427	659.9	–
333.15 K, 100 kPa, x2 = 0.7906	654.4	–
333.54 K, 100 kPa, x2 = 0.2808	–	0.322
333.54 K, 5000 kPa, x2 = 0.2808	–	0.341
333.54 K, 10000 kPa, x2 = 0.2808	–	0.36
333.73 K, 100 kPa, x2 = 0.5427	–	0.3
333.73 K, 5000 kPa, x2 = 0.5427	–	0.319
333.73 K, 10000 kPa, x2 = 0.5427	–	0.338
335.62 K, 100 kPa, x2 = 0.7906	–	0.281
335.62 K, 5000 kPa, x2 = 0.7906	–	0.298
335.62 K, 10000 kPa, x2 = 0.7906	–	0.316
338.15 K, 100 kPa, x2 = 0.2808	661	–
338.15 K, 100 kPa, x2 = 0.5427	655.6	–
338.15 K, 100 kPa, x2 = 0.7906	650.1	–
343.15 K, 100 kPa, x2 = 0.2808	656.8	–
343.15 K, 100 kPa, x2 = 0.5427	651.2	–
343.15 K, 100 kPa, x2 = 0.7906	645.6	–
344.21 K, 100 kPa, x2 = 0.7906	–	0.26
344.21 K, 5000 kPa, x2 = 0.7906	–	0.276
344.21 K, 10000 kPa, x2 = 0.7906	–	0.292
344.39 K, 100 kPa, x2 = 0.2808	–	0.291
344.39 K, 5000 kPa, x2 = 0.2808	–	0.308
344.39 K, 10000 kPa, x2 = 0.2808	–	0.325
344.4 K, 100 kPa, x2 = 0.5427	–	0.273
344.4 K, 5000 kPa, x2 = 0.5427	–	0.29
344.4 K, 10000 kPa, x2 = 0.5427	–	0.307
352.61 K, 2844 kPa, x2 = 0.5427	648	–
352.61 K, 8237 kPa, x2 = 0.5427	654.9	–
352.61 K, 10040 kPa, x2 = 0.5427	657	–
352.62 K, 100 kPa, x2 = 0.5427	–	0.255
352.62 K, 5000 kPa, x2 = 0.5427	–	0.27
352.62 K, 10000 kPa, x2 = 0.5427	–	0.286
353.2 K, 100 kPa, x2 = 0.7906	–	0.239
353.2 K, 5000 kPa, x2 = 0.7906	–	0.255
353.2 K, 10000 kPa, x2 = 0.7906	–	0.27
354.08 K, 100 kPa, x2 = 0.2808	–	0.267
354.08 K, 5000 kPa, x2 = 0.2808	–	0.283
354.08 K, 10000 kPa, x2 = 0.2808	–	0.299
357.15 K, 100 kPa, x2 = 0.2808	644.3	–
357.15 K, 100 kPa, x2 = 0.5427	638.8	–
357.15 K, 100 kPa, x2 = 0.7906	633	–
362.65 K, 4800 kPa, x2 = 0.2808	646.1	–
362.65 K, 6720 kPa, x2 = 0.2808	649	–
362.65 K, 9300 kPa, x2 = 0.2808	652.5	–
363.71 K, 100 kPa, x2 = 0.2808	–	0.245
363.71 K, 5000 kPa, x2 = 0.2808	–	0.261
363.71 K, 10000 kPa, x2 = 0.2808	–	0.276
363.74 K, 100 kPa, x2 = 0.5427	–	0.232
363.74 K, 5000 kPa, x2 = 0.5427	–	0.247
363.74 K, 10000 kPa, x2 = 0.5427	–	0.26
364.62 K, 100 kPa, x2 = 0.7906	–	0.216
364.62 K, 5000 kPa, x2 = 0.7906	–	0.232
364.62 K, 10000 kPa, x2 = 0.7906	–	0.246
365.46 K, 3432 kPa, x2 = 0.7906	631.8	–
365.46 K, 8983 kPa, x2 = 0.7906	639.4	–
365.46 K, 9963 kPa, x2 = 0.7906	640.9	–
